Earlier results in patent publication US9533037B2, “Methods for designing and preparing vaccines comprising directed sequence polymer compositions via the directed expansion of epitopes” (Declion Holdings LLC, priority 2007, dated 2017).

Test system: MBP83-99
Conditions: limited human trials

AKPVVHLFANIVTPRTP
immune reactivity against the peptide: long term immune reactivity
clinical efficacy by evaluation using MRI (multiple sclerosis): clinically ineffective
